One compound from patent publication US20020151591A1, “Combination use of acetylcholinesterase inhibitors and GABAa inverse agonists for the treatment of cognitive disorders” (priority 2000, published 2002) can be followed below.

This test relates to scopolamine-induced retention deficit in male Sprague Dawley rats. The experiment in a line: Scopolamine-induced memory deficit in the spatial water maze task. Format: in vivo, rat. The note with it: IV 5 minutes prior to scopolamine 0.125 mg/kg IP; sub-efficacious doses; retention tested one day after training; Fisher LSD p<0.05 vs PEG/scopolamine. The protocol:
Subjects: Animals used in these studies were naive male Sprague Dawley rats (SASCO St. Louis) weighing between 200-250 grams. Animals were housed in groups of three in a temperature (22° C.[…]) and humidity (40-70% relative humidity) controlled vivarium with a 12-hour light/dark cycle. Animals had ad lib access to food and water.
Drugs: Aricept and said compound of Formula I were each dissolved in 50% polyethylene glycol (PEG), and scopolamine HCI (Sigma) was dissolved in 0.9% saline. Aricept and said compound of Formula I (alone or in combination) or 50% PEG was administered intravenously (IV) 5 minutes prior to scopolamine (0.125 mg/kg) or saline given intraperitoneally (IP). Training commenced 15 minutes after the IP injection. […]
Procedure: An animal was initially placed on the platform in the tank for 20 seconds. […] For each trial during acquisition and retention, a computerized video tracking system recorded the latency (sec) to reach the submerged platform the total distance traveled (m) in the water maze, the number of zone (quadrant) transitions made, and the swim speed of the animal.
Data Analysis: A one-way ANOVA was conducted on the latency to locate the platform during retention testing. Tests for significant differences between individual treatment groups were assessed using a Fisher LSD test (p<0.05).

Each structure is given as a SMILES string.

Take `COc1cc2c(cc1OC)C(=O)C(CC1CCN(Cc3ccccc3)CC1)C2` (stereo not shown) [Aricept, donepezil]: the “attenuation of scopolamine-induced retention deficit (latency to locate the platform during retention testing)” value is listed as “did not significantly attenuate”.
